Key:
[1] = tested on: EGFR mutant (L858R, ex19del and T790M) cancer models; conditions: in vitro and in vivo; cited from earlier work
WT EGFR = WT EGFR (Homo sapiens, UniProt P00533); conditions: at clinically relevant efficacious concentrations; cited from earlier work
[2] = tested on: PD-L1 (CD274) on tumor cells; test: Effects of targeted agents on PD-L1 modulation (real time PCR and flow cytometry), summary; type: cell-based, human
Description: This example evaluates the effects of selected therapeutic agents (e.g., INC280, MEK162, LGX818 and LDK378) on PD-L1 (CD274) modulation. Selected therapeutic agents were examined by real time PCR and flow cytometry on PD-L1 levels.

[3] = tested on: PD-L1 (CD274) surface expression in EBC-1 cells; test: Flow cytometry of PD-L1 surface expression in EBC-1 cells in vitro; type: cell-based, human; conditions: EBC-1 cells (NSCLC with cMET amplification), FIG. 1
Description: PD-L1 (CD274) expression was analyzed in cancer cell lines treated with INC280. Cells were obtained from ATCC and cultured in vitro following ATCC directions. The cell lines used were previously characterized by the Cancer Cell Line Encyclopedia Project (http://www.broadinstitute.org/ccle/home). Cells plated in six-well culture plates were treated with the INC280 at different concentrations (10 nM, 100 nM, and 1000 nM) for 24, 48 and 72 hours. Equal amount of vehicle (DMSO) was used as a control. Cells were washed with PBS and then harvested using a cell scraper. For each reaction, 0.5-1×10^6 cells were stained with 20 μL of anti-human monoclonal PD-L1-PE antibody, clone M1H1 (BD) for 30-60 minutes at 4° C. Cells were washed twice and data was acquired using a Canto II with FACSDiva software (BD Bioscience). Data analysis was performed using FlowJo software (Tree Star). Mean fluorescence intensity (MFI) was determined by gating on single cells. Unstained cells were used as a gating control.

[4] = tested on: PD-L1 (CD274) mRNA in Hs.746.T tumor xenograft; test: TaqMan RT PCR of PD-L1 mRNA in Hs.746.T tumor xenograft; type: in vivo, human; conditions: Hs.746.T tumor (gastric cancer, cMET amplification & mutation) xenograft, FIG. 2
Description: (§1) TaqMan RT PCR assays were developed to detect changes of expression levels of PD-L1 (CD274) in cell lines and xenograft tumors. mRNA was isolated from frozen cell pellets or tumor fragments using the Qiagen RNeasy Mini kit. Isolated RNA was frozen at −80° C. RNA quality was checked and RNA was quantified using a 2100 Agilent Bioanalyzer following the protocol for the Agilent RNA 6000 Nano Kit. cDNA was prepared using a High Capacity RNA- to cDNA Kit (Applied Biosystems). Real-time PCR reactions were carried out in 20 μl total volume, including 10 μl of Universal PCR master mix (Applied Biosystems), 1 μl of human PD-L1 (CD274) probe/primer set (Applied Biosystems), and 8 μl of cDNA. Each sample was run in triplicate. The amount of cDNA produced from 25-50 ng of RNA in the reverse transcription reaction was used in each PCR reaction. Due to difference in mRNA levels between PD-L1 and GAPDH, the two real-time PCR reactions were done in separate tubes using same amount of cDNA. The real-time PCR reaction was run on the C1000 Thermal Cycle (BioRad) with the cycle program as follows: a 10 minute incubation at 95° C. followed by 40 cycles of 95° C. for 15 seconds and 60° C. for 1 minute. After the reaction was complete, the PD-L1 average Ct was normalized relative to each Ct value from the GAPDH reference reaction. Each normalized logarithmic value was then converted into a linear value.

[5] = tested on: PD-L1 (CD274) mRNA in H3122 cells; test: TaqMan RT PCR of PD-L1 mRNA in H3122 cells in vitro; type: cell-based, human; conditions: H3122 (NSCLC with ALK translocation) in vitro, FIG. 3
Description: (§2) TaqMan RT PCR assays were developed to detect changes of expression levels of PD-L1 (CD274) in cell lines and xenograft tumors. mRNA was isolated from frozen cell pellets or tumor fragments using the Qiagen RNeasy Mini kit. Isolated RNA was frozen at −80° C. RNA quality was checked and RNA was quantified using a 2100 Agilent Bioanalyzer following the protocol for the Agilent RNA 6000 Nano Kit. cDNA was prepared using a High Capacity RNA- to cDNA Kit (Applied Biosystems).
as §1, with “Real-time” for “TaqMan RT PCR assays were developed to detect changes of expression levels of PD-L1 (CD274) in cell lines and xenograft tumors. mRNA was isolated from frozen cell pellets or tumor fragments using the Qiagen RNeasy Mini kit. Isolated RNA was frozen at −80° C. RNA quality was checked and RNA was quantified using a 2100 Agilent Bioanalyzer following the protocol for the Agilent RNA 6000 Nano Kit. cDNA was prepared using a High Capacity RNA- to cDNA Kit (Applied Biosystems). Real-time”

[6] = tested on: PD-L1 (CD274) mRNA in LOXIMV1 tumors; test: TaqMan RT PCR of PD-L1 mRNA in LOXIMV1 tumor xenograft model; type: in vivo, human; conditions: tumor xenograft model bearing LOXIMV1 (BRAF mutant melanoma), FIG. 4
Description: as §2
as §1, with “Real-time” for “TaqMan RT PCR assays were developed to detect changes of expression levels of PD-L1 (CD274) in cell lines and xenograft tumors. mRNA was isolated from frozen cell pellets or tumor fragments using the Qiagen RNeasy Mini kit. Isolated RNA was frozen at −80° C. RNA quality was checked and RNA was quantified using a 2100 Agilent Bioanalyzer following the protocol for the Agilent RNA 6000 Nano Kit. cDNA was prepared using a High Capacity RNA- to cDNA Kit (Applied Biosystems). Real-time”

[7] = tested on: PD-L1 (CD274) mRNA in HEYA8 tumors; test: TaqMan RT PCR of PD-L1 mRNA in HEYA8 tumor xenograft model; type: in vivo, human; conditions: tumor xenograft model bearing HEYA8 (KRAS mutant ovarian cancer), FIG. 5
Description: as §2
as §1, with “Real-time” for “TaqMan RT PCR assays were developed to detect changes of expression levels of PD-L1 (CD274) in cell lines and xenograft tumors. mRNA was isolated from frozen cell pellets or tumor fragments using the Qiagen RNeasy Mini kit. Isolated RNA was frozen at −80° C. RNA quality was checked and RNA was quantified using a 2100 Agilent Bioanalyzer following the protocol for the Agilent RNA 6000 Nano Kit. cDNA was prepared using a High Capacity RNA- to cDNA Kit (Applied Biosystems). Real-time”

Sequence of WT EGFR (P00533 25-1210): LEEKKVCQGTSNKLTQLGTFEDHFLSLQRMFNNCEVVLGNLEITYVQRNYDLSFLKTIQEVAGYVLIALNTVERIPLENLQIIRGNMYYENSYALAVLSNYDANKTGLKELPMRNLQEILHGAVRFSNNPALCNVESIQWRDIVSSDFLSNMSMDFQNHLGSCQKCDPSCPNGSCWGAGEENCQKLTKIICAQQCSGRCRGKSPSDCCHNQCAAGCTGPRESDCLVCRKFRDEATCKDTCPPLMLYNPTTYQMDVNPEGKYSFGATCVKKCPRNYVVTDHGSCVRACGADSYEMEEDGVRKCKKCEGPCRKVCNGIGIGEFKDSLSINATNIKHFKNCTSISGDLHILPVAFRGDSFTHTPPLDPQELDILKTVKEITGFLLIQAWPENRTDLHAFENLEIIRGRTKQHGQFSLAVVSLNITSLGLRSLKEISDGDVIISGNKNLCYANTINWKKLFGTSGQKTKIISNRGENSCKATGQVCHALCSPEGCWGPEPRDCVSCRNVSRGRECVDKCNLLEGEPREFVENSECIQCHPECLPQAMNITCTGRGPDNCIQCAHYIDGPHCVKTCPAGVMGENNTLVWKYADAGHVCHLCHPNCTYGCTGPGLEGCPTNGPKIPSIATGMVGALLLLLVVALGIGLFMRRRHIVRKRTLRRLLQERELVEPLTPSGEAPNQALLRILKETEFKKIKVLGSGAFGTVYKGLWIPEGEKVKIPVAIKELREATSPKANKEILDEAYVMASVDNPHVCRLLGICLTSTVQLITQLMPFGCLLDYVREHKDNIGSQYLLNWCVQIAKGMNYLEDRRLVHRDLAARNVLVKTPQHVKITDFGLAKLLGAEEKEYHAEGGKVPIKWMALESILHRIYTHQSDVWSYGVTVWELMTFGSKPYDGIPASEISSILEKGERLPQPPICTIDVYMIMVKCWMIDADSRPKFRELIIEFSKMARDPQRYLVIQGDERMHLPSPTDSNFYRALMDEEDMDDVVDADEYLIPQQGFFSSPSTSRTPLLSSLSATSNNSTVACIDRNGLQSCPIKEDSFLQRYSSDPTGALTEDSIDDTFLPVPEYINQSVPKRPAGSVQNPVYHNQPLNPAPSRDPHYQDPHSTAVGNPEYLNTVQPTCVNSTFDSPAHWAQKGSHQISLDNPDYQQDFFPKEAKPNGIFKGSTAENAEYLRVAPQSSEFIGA

In the case of `Cc1cc(C(=O)Nc2nc3cccc(Cl)c3n2[C@@H]2CCCCN(C(=O)/C=C/CN(C)C)C2)ccn1` [EGF816, (R,E)-N-(7-chloro-1-(1-(4-(dimethylamino)but-2-enoyl)azepan-3-yl)-1H-benzo[d]imidazol-2-yl)-2-methylisonicotinamide], the “efficacy in EGFR mutant cancer models” value [1] is given as “significant efficacy” and the “WT EGFR inhibition” value (WT EGFR) is given as “no indication of WT EGFR inhibition”.
In the case of `CNC(=O)c1ccc(-c2cnc3ncc(Cc4ccc5ncccc5c4)n3n2)cc1F` [INC280, 2-fluoro-N-methyl-4-[7-(quinolin-6-ylmethyl)imidazo[1,2-b][1,2,4]triazin-2-yl]benzamide], the “inhibition of PD-L1 on tumor cells” value [2] is reported as “Significant inhibition”, the “surface expression of PD-L1” value [3] is reported as “significant downregulation” and the “PD-L1 expression (mRNA)” value [4] is reported as “Inhibition”.
With `Cc1cc(Nc2ncc(Cl)c(Nc3ccccc3S(=O)(=O)C(C)C)n2)c(OC(C)C)cc1C1CCNCC1` [LDK378, 5-chloro-N2-(2-isopropoxy-5-methyl-4-(piperidin-4-yl)-phenyl)-N4-[2-(propane-2-sulfonyl)-phenyl]-pyrimidine-2,4-diamine, reference compound] the “inhibition of PD-L1 on tumor cells” value [2] was “Significant inhibition” and the “PD-L1 mRNA” value [5] was “Inhibition”.
In the case of `COC(=O)N[C@@H](C)CNc1nccc(-c2cn(C(C)C)nc2-c2cc(Cl)cc(NS(C)(=O)=O)c2F)n1` [LGX818, methyl (S)-(1-((4-(3-(5-chloro-2-fluoro-3-(methylsulfonamido)phenyl)-1-isopropyl-1H-pyrazol-4-yl)pyrimidin-2-yl)amino)propan-2-yl)carbamate], the “inhibition of PD-L1 on tumor cells” value [2] is reported as “Significant inhibition” and the “PD-L1 mRNA” value [6] is reported as “Downregulation”.
For `Cn1cnc2c(F)c(Nc3ccc(Br)cc3F)c(C(=O)NOCCO)cc21` [MEK162, 5-((4-bromo-2-fluorophenyl)amino)-4-fluoro-N-(2-hydroxyethoxy)-1-methyl-1H-benzo[d]imidazole-6-carboxamide], the “inhibition of PD-L1 on tumor cells” value [2] was “Significant inhibition” and the “PD-L1 mRNA” value [7] was “Downregulation”.

Reference: US11344620B2, “Combination therapies” (Novartis AG, priority 2014, dated 2022)
